# Laboratory results published in patent publication US20260232714A1, “COMPOSITION CONTAINING NICOTINAMIDE MONONUCLEOTIDE” (MEIJI HOLDINGS CO., LTD., priority 2023, published 2026).
# “Also recorded” adds a separate entry of the source.
# Experiment: Test 1: blood NMN concentration after oral or sublingual administration of NMN (plasma, LC-MS/MS)
# Format: in vivo, human
# Description: Tablets were used for oral administration. The content of NMN was 500 mg.
# Powder was used for sublingual administration. The content of NMN was 250 mg.
# One adult with no abnormal health conditions participated in the test. The test was conducted over two separate days.
# Then, 250 mg of NMN (powder) was placed under the tongue, so that the powder was dissolved with saliva, and the test subject was maintained in that state. After 1 minute, the test subject spit out all NMN from the mouth, and blood was collected from the fingertip 5, 10, 15, and 30 minutes after the NMN was placed under the tongue.
# NMN concentration was determined by LC-MS/MS. Details of the measurements are described below.
# • Liquid A: 5 mM Ammonium formate aqueous solution • Liquid B: Acetonitrile
# [1] = sublingual administration, in some test subjects
smiles,measurement,setting,value
"NC(=O)c1ccc[n+]([C@@H]2O[C@H](COP(=O)([O-])O)[C@@H](O)[C@H]2O)c1 [NMN, nicotinamide mononucleotide]",blood NMN concentration compared with that observed before NMN ingestion (0 minute),"oral administration, one tablet 500 mg NMN with water, one adult, 5-60 minutes, plasma",virtually unchanged; also recorded: does not increase; also recorded: almost unchanged
same,maximum blood concentration,[1],≥ 5 µg/mL
same,time to reach the maximum blood concentration after administration,[1],about 5 minutes
